Source: patent publication US10745432B2, “Crystal of 6′-sialyllactose sodium salt, and process for producing same” (KYOWA HAKKO BIO CO., LTD., priority 2015, dated 2020)

Experiments:
Assay type in all cases: physicochemical
[1] = Degree of coloration (transmittance at 430 nm) when a heat load at 60° C. was applied; conditions: for degree of coloration, transmittance T % 430 nm: solution at 100 g/L in terms of anhydrate, 1 cm
Procedure: Further, with respect to the crystal of 6SL sodium salt 4.6-hydrate and known amorphous 6SL sodium salt, the degree of coloration when a heat load at 60° C. was applied was compared, and the results are shown in Table 4.
The degree of coloration is expressed by transmittance T % 430 nm 100×10^−A (A=Abs: 430 nm, 1 cm), which was obtained by dissolving each substance at 100 g/L in terms of an anhydrate and performing measurement for the solution.

[2] = Hygroscopicity: weight change on storage at 30° C., relative humidity 80%
Procedure: The hygroscopicity of the obtained crystal of 6SL sodium salt 4.6-hydrate and that of a 6SL sodium reagent (amorphous salt, manufactured by Carbosynth Limited) were compared under the following conditions.
Storage condition: 30° C., relative humidity: 80% (apparatus: THE051FA, manufactured by Advantec Toyo Kaisha Ltd.).
Measurement method: After about 100 mg of a sample was weighed with a precision balance, the sample was packed in a glass container and stored under the above-mentioned conditions. Thereafter, the sample was weighed again, and the weight change ratio was calculated.
Incidentally, the weight of the sample at each elapsed time was measured by assuming the weight of each sample at the start of the test to be 100%.

[3] = pH of aqueous solution of the crystal; conditions: aqueous solution at 100 g/L in terms of crystal of 6SL sodium salt 4.6-hydrate
Procedure: As for the pH, an aqueous solution at 100 g/L in terms of crystal of 6SL sodium salt 4.6-hydrate was measured.

Row | degree of coloration, transmittance T % 430 nm ([1]; elapsed time 0 days, sodium salt) | degree of coloration, transmittance T % 430 nm ([1]; elapsed time 3 days, sodium salt) | degree of coloration, transmittance T % 430 nm ([1]; elapsed time 6 days, sodium salt) | weight of sample (weight at start of test = 100%) ([2]; elapsed time 0.5 hours, sodium salt) | weight of sample (weight at start of test = 100%) ([2]; elapsed time 2.5 hours, sodium salt) | weight of sample (weight at start of test = 100%) ([2]; elapsed time 8 hours, sodium salt) | weight of sample (weight at start of test = 100%) ([2]; elapsed time 20 hours, sodium salt) | degree of coloration, transmittance T % 430 nm ([1]; elapsed time 0 days) | degree of coloration, transmittance T % 430 nm ([1]; elapsed time 3 days) | degree of coloration, transmittance T % 430 nm ([1]; elapsed time 6 days) | pH [3] | weight of sample (weight at start of test = 100%) ([2]; elapsed time 0 hours (start, assumed 100%)) | weight of sample (weight at start of test = 100%) ([2]; elapsed time 0.5 hours) | weight of sample (weight at start of test = 100%) ([2]; elapsed time 2.5 hours) | weight of sample (weight at start of test = 100%) ([2]; elapsed time 8 hours) | weight of sample (weight at start of test = 100%) ([2]; elapsed time 20 hours) | SMILES | degree of coloration during storage (in words) ([1]; compared with known amorphous 6SL sodium salt) | hygroscopicity (in words) ([2]; compared with amorphous salt)
1 | 99.4% | 99.0% | 98.8% | 114.4% | 119.6% | 122.9% | 124.1% | – | – | – | – | – | – | – | – | – | CC(=O)NC1C(O)CC(OCC2OC(OC3C(CO)OC(O)C(O)C3O)C(O)C(O)C2O)(C(=O)[O-])OC1C(O)C(O)CO.[Na+] (stereo not drawn) [Amorphous salt, 6SL sodium salt, reference compound] | – | –
2 | – | – | – | – | – | – | – | 99.9% | 99.8% | 99.8% | 6.23 | 100.0% | 98.8% | 98.6% | 98.4% | 98.7% | CC(=O)NC1C(O)CC(OCC2OC(OC3C(CO)OC(O)C(O)C3O)C(O)C(O)C2O)(C(=O)[O-])OC1C(O)C(O)CO.[Na+] (stereo not drawn) [Crystal of sodium salt, 6SL sodium salt 4.6-hydrate] | lower than that of known amorphous 6SL sodium salt | lower hygroscopicity than the amorphous salt
